The record followed here is patent US11007184B2, “Cancer treatments using combinations of type 2 MEK and ERK inhibitors” (BIOMED VALLEY DISCOVERIES, INC., priority 2013, dated 2021).

What is called IC50 is the concentration at which inhibition is half-maximal.

In experiment [1] the test system is A375 cells escalated with BVD-523 (BVD-523 line). Nature of the experiment: Proliferation assay (Alamar Blue, 96 hours), dose escalation study. It is filed as cell-based. Conditions: Homo sapiens, A-375, Month 3, growing in 1.2 μM BVD-523, read-out: Relative IC50. On the technique in general: Resazurin is reduced to fluorescent resorufin, in cell work by metabolically active cells.
Text: (§2) Cancer cell lines were maintained in cell culture under standard media and serum conditions. For dose escalation studies, A375 cells were split, grown to about 40-60% confluence, and then treated with the initial dose of the specified drug.
(§3) Cells were then allowed to grow until 70-90% confluence and split. Split ratios were kept as “normal” as possible and reasonably consistent between treatments (e.g. a minimum of 50% of the normal split ratio of the parentals). Medium was refreshed every 3-4 days. When cells again reached about 40-60% confluence, the dose was escalated. In the event that the 40-60% window was missed, the cells were split again and dosed once they reached 40-60% confluence. Again, medium was refreshed every 3-4 days.
(§4) Proliferation assays were used to track changes in sensitivity to the escalated agent(s) at appropriate time intervals (e.g. each month, although the timing is dependent on adequate cell numbers being available). […] Alamar Blue 10% (v/v) was then added and incubated for 4 hours and fluorescent product was detected using a BMG FLUOstar plate reader. The average media only background value was deducted and the data analyzed using a 4-parameter logistic equation in GraphPad Prism.

Experiment [2] concerns A375 cells. Put plainly: Combination study, 10×8 dose matrix, Alamar Blue and CellTiter-Glo, Bliss additivity model. It is filed as cell-based, human. As to conditions: single agent. Here is the method: Combinations were tested using a 10×8 dose matrix with a final DMSO concentration of 0.2%. A 96 hour assay incubation period followed, with subsequent addition of Alamar Blue 10% (v/v) and 4 hours incubation prior to reading on a fluorescent plate reader. After reading Alamar Blue, the medium/Alamar Blue mix was flicked off and 100 μl of CellTiter-Glo/PBS (1:1) added and the plates processed as per the manufacturer's instructions (Promega). Media only background values were subtracted before the data was analysed. The Bliss additivity model was then applied.
In brief, predicted fractional inhibition values for combined inhibition were calculated using the equation Cbliss=A+B−(A×B) where A and B are the fractional inhibitions obtained by drug A alone or drug B alone at specific concentrations. Cbliss is the fractional inhibition that would be expected if the combination of the two drugs were exactly additive. Cbliss values are subtracted from the experimentally observed fractional inhibition values to give an ‘excess over Bliss’ value. Excess over Bliss values greater than 0 indicate synergy, whereas values less than 0 indicate antagonism. Excess over Bliss values are plotted as heat maps±SD.
The single and combination data are also presented as dose-response curves generated in GraphPad Prism (plotted using % viability relative to DMSO only treated controls).

Experiment [3] has as its system A375 cells. Put plainly: Dose escalation study. Conditions: Month 2; for Dose escalation progress: A375 cells; for Concentration in which escalated cells were growing: single agent escalation. It is filed as cell-based, human. From the text: Medium was refreshed every 3-4 days. […] Again, medium was refreshed every 3-4 days. The process was repeated as required (FIG. 19).

For experiment [4], the system named is A375 cells escalated with dabrafenib + trametinib (Dab/Tram line).
Text: as §2, §3, §4
Experiment [5] deals with A375 Parental. Nature of the experiment: Single agent proliferation assay (CellTiter-Glo, 72 h). The format is cell-based. As to conditions: Homo sapiens, A-375. For orientation: Cellular ATP, detected with luciferase, serves as a proxy for viable cell number.
Experimental: (§5) Test compounds were incubated with the cells for 72 h at 37° C., 5% CO2 in a humidified atmosphere. CellTiter-Glo® reagent (Promega, Madison, Wis.) was added according to manufacturer's instructions and luminescence detected using the BMG FLUOstar plate reader (BMG Labtech, Ortenberg, Germany). The average media only background value was deducted and the data analysed using a 4-parameter logistic equation in GraphPad Prism (GraphPad Software, La Jolla, Calif.).
Experiment [6] deals with A375 NRAS (Q61K/+). The experiment is described as above. Conditions: Homo sapiens, A-375. It is filed as cell-based.
Experimental: Cells were seeded in 96-well plates at the densities and media conditions indicated in Table 16 and allowed to adhere overnight prior to addition of compound or vehicle control. […] Test compounds were incubated with the cells for 72 h at 37° C., 5% CO2 in a humidified atmosphere. CellTiter-Glo® reagent (Promega, Madison, Wis.) was added according to manufacturer's instructions and luminescence detected using the BMG FLUOstar plate reader (BMG Labtech, Ortenberg, Germany). The average media only background value was deducted and the data analysed using a 4-parameter logistic equation in GraphPad Prism (GraphPad Software, La Jolla, Calif.).
Experiment [7] has as its system HCT116 Parental. The description is as above. It is filed as cell-based. As to conditions: Homo sapiens, HCT-116.
Experimental: as §5
For experiment [8], the system named is HCT116 KRAS KO (+/−). Described as above. It is filed as cell-based. As to conditions: Homo sapiens, HCT-116.
Experimental: as §5
For experiment [9], the system named is RKO Parental. The description is as above. It is filed as cell-based.
Experimental: as §5
Experiment [10] concerns RKO BRAF KO (+/−/−). The experiment is described as above. It is filed as cell-based.
Experimental: as §5
Experiment [11] relates to A375 cells. Nature of the experiment: Focused combination study, Alamar Blue viability assay. The format is cell-based, human. As to conditions: with the lower concentrations of Sorafenib. The procedure:
(§1) Combinations were tested using a 10×8 dose matrix with a final DMSO concentration of 0.2%. A 96 hour assay incubation period followed, with subsequent addition of Alamar Blue 10% (v/v) and 4 hours incubation prior to reading on a fluorescent plate reader. After reading Alamar Blue, the medium/Alamar Blue mix was flicked off and 100 μl of CellTiter-Glo/PBS (1:1) added and the plates processed as per the manufacturer's instructions (Promega). Media only background values were subtracted before the data was analysed. The Bliss additivity model was then applied. In brief, predicted fractional inhibition values for combined inhibition were calculated using the equation […]) where A and B are the fractional inhibitions obtained by drug A alone or drug B alone at specific concentrations. Cbliss is the fractional inhibition that would be expected if the combination of the two drugs were exactly additive. Cbliss values are subtracted from the experimentally observed fractional inhibition values to give an 'excess over Bliss' value. […] Excess over Bliss values are plotted as heat maps±SD. For focused combination studies, the Alamar Blue viability assays were performed as described above for combination studies. Additionally, Caspase-Glo 3/7 assays were performed. In brief, HCT116 cells were seeded in triplicate in white 96-well plates at a cell density of 5000 cells/well in McCoy's 5A plus 10% FBS. A375 cells were seeded at a density of 5000 cells/well in DMEM plus 10% FBS. […] The final concentration of DMSO was 0.2%, and 800 nM staurosporine was included as a positive control. 24 and 48 hour assay incubation periods were used. Then, Caspase-Glo® 3/7 50% (v/v) was added, plates were mixed for 5 minutes on an orbital shaker and incubated for 1 hour at room temperature prior to reading on a luminescent plate reader. Media only background values were subtracted before the data was analysed.

The test system of experiment [12] is HCT116 cells. The description is as above. The format is cell-based, human. The procedure: as §1
For experiment [13], the system named is MAPK signaling in A375 and HCT116 cells. Put plainly: Western blot analysis of MAPK signaling. The format is cell-based, human. The procedure:
For Western blot studies, HCT116 cells (5×10^6) were seeded into 10 cm dishes in McCoy's 5A plus 10% FBS. […] Cells were allowed to adhere overnight prior to addition of the indicated amount of test compound (BVD-523) or vehicle control. Cells were treated for either 4 or 24 hours before isolation of whole-cell protein lysates, as specified below. Cells were harvested by trypsinisation, pelleted and snap frozen. Lysates were prepared with RIPA (Radio-Immunoprecipitation Assay) buffer, clarified by centrifugation and quantitated by bicinchoninic acid assay (BCA) assay. 20-50 μg of protein was resolved by SDS-PAGE electrophoresis, blotted onto PVDF membrane and probed using the antibodies detailed in Table 14 (for the 4-hour treatment) and Table 15 (for the 24-hour treatment) below.
(Immunoblotting shows a protein as a band on a membrane.)

For `CC(C)(C)c1nc(-c2cccc(NS(=O)(=O)c3c(F)cccc3F)c2F)c(-c2ccnc(N)n2)s1` [Dabrafenib, dabrafenib], the IC50 in [1] is 18.4 nM. In experiment [2], the “Sensitivity of A375 cells, which carry a BRAF (V600E) mutation” value is recorded as “sensitive”. Further, in experiment [3], the Dose escalation progress entry is “quickest” and the “Concentration in which escalated cells were growing” value stood at 100 × parental cell IC50. Also, in experiment [4], the IC50 came to 58 nM.

Consider `Cn1cnc2c(F)c(Nc3ccc(Br)cc3F)c(C(=O)NOCCO)cc21` [MEK-162], for which the IC50 in experiment [5] amounted to 23 nM; in [6], 33 nM; in experiment [7] it was 114 nM; in [8] it was 113 nM; in experiment [9] it was 210 nM; in [10], 23 nM.

Consider `O=C(c1ccc(F)c(F)c1Nc1ccc(I)cc1F)N1CC(O)([C@@H]2CCCCN2)C1` [GDC-0973], for which the IC50 in experiment [5] was 2 nM; in experiment [6], 3 nM; in experiment [7], 90 nM; in experiment [8] it was 61 nM; in [9] it was 40 nM; in experiment [10] it was 31 nM.

As for `CC(=O)Nc1cccc(-n2c(=O)n(C3CC3)c(=O)c3c(Nc4ccc(I)cc4F)n(C)c(=O)c(C)c32)c1` [Trametinib, trametinib], the half-maximal inhibitory concentration (IC50) in experiment [1] amounted to 1.7 nM; in experiment [5], 0.3 nM; in experiment [7], 7 nM; in experiment [8], 6 nM; in experiment [9], 8 nM; in [10], 3 nM. Moreover, the “Concentration in which escalated cells were growing” value in experiment [3] is reported as 100 × parental cell IC50.

`CC(C)Nc1cc(-c2c[nH]c(C(=O)N[C@H](CO)c3cccc(Cl)c3)c2)c(Cl)cn1` [BVD-523]: the IC50 in experiment [7] stood at 256 nM; in experiment [8], 316 nM; in [9] it was 621 nM; in experiment [10] it was 762 nM. Moreover, the “Combination interaction with Sorafenib” value in [11] is given as “window of synergy”; in [12] (Trametinib: with higher concentrations of Sorafenib) it was “windows of synergy”. The “Combination interaction with AZ628” value in experiment [12] is recorded as “windows of synergy”. In addition, the Dose escalation progress result in experiment [3] was “progressed more slowly”. Moreover, the “Concentrations required to induce changes in substrate phosphorylation and effector targets of ERK kinases” value in experiment [13] (RAF and RAS mutant cancer cells in-vitro, acute and prolonged treatment) is “low micromolar range”. The “RSK1/2 phosphorylation at residues strictly dependent on ERK (T359/5363)” value in experiment [13] (following BVD-523 treatment) is given as “reduced phosphorylation”. In experiment [13] (following either acute or prolonged treatment), the “Cellular ERK enzyme activity” value is “fully inhibited”.

Turning to `O=C(Nc1ccc2[nH]nc(-c3ccncc3)c2c1)[C@@H]1CCN(CC(=O)N2CCN(c3ccc(-c4ncccn4)cc3)CC2)C1` [SCH772984], the 50% inhibitory concentration (IC50) came to 43 nM in experiment [5]; 79 nM in experiment [6]; 116 nM in experiment [7]; 141 nM in [8]; 126 nM in experiment [9]; 125 nM in experiment [10].

`CC(=O)O[C@H]1C(=O)[C@@]2(C)[C@H]([C@H](OC(=O)c3ccccc3)[C@]3(O)C[C@H](OC(=O)[C@H](O)[C@@H](NC(=O)c4ccccc4)c4ccccc4)C(C)=C1C3(C)C)[C@]1(OC(C)=O)CO[C@@H]1C[C@@H]2O` [Paclitaxel] displayed an IC50 in experiment [6] of 6 nM.

For `O=C(NOCCO)c1ccc2cncn2c1Nc1ccc(I)cc1F` [GDC-0623], the half-maximal inhibitory concentration (IC50) in experiment [5] was determined as 8 nM; in [6] it was 10 nM; in experiment [7] it was 31 nM; in experiment [8], 29 nM; in experiment [9], 32 nM; in experiment [10], 5 nM.
